Results taken from patent US20110077294A1, “R-(-) / S-(+)-7-[3-N SUBSTITUTED AMINO-2 HYDROXYPROPOXY] FLAVONES” (priority 2006, published 2011).

How the values were obtained:
Type in all cases: in vivo
Conditions in all cases: 25 mg/kg
C57BL/KsBom-db/db mice [1] = assay: Blood glucose profile of db/db mice during daily treatment (antihyperglycemic activity)
Description: (§1) C57BL/KsBom-db/db mice (12-18 weeks old), weighing around 35+g bred in the animal house of CDRI, Lucknow, were used in the present experiments. The mice were housed in groups of 3 to 5 (same sex) in a room controlled for temperature (23±2.0 ° C.) and 12/12 hours light/dark cycle (lights on at 6.00 am). Body weight of each animal was measured daily from day 1 to day 10 of the experiment. All animals had free access to fresh water and normal pellet diet except on the day of the postprandial protocol (day 6) and during the overnight fast before the OGTT on day 10. The animals always had access to water during experimental periods. Blood glucose was checked every morning up till day 10. On day 10 an oral glucose tolerance test (OGTT) was performed after an overnight fasting. Blood glucose was measured at −30.0 min and test compounds were administered. The blood glucose was again measured at 0 min just post treatment and at this juncture glucose solution was given at a dose of 3 gm/kg to all the groups including the vehicle treated group. The blood glucose levels were checked at 30 min, 60 min, 90 min and 120 min post glucose administration. The data was analyzed for its significance on Prism software.

C57BL/KsBom-db/db mice [2] = assay: Oral glucose tolerance test (OGTT) on day 10 in db/db mice
Description: as §1

C57BL/KsBom-db/db mice [3] = assay: Serum lipid profile of treated db/db mice (antidyslipidemic activity)
Description: as §1

In the case of `CC(C)NCC(O)COc1ccc2c(=O)cc(-c3cc(O)cc(O)c3)oc2c1` (stereo in doubt) [S-002-857 (R), (R)-(−)-7-(2-Hydroxy-3-isopropylaminopropoxy)-3′,5′-dihydroxy flavone], the “blood glucose profile compared to sham treated (in words)” value (C57BL/KsBom-db/db mice [1]) is reported as “marginal fall in blood glucose profile”, the “Blood glucose, day 1 post treatment” value (C57BL/KsBom-db/db mice [1]; day 1) is reported as 12.5 ± 2.55 mM and the “Blood glucose % change compared to control, day 1” value (C57BL/KsBom-db/db mice [1]; day 1, vs sham) is reported as 0.0%. For the same molecule, the “Blood glucose, day 2 post treatment” value (C57BL/KsBom-db/db mice [1]; day 2) was 12.3 ± 2.67 mM, the “Blood glucose % change compared to control, day 2” value (C57BL/KsBom-db/db mice [1]; day 2, vs sham) was −1.25% and the “Blood glucose, day 3 post treatment” value (C57BL/KsBom-db/db mice [1]; day 3) was 12.1 ± 2.02 mM. For the same molecule, the “Blood glucose % change compared to control, day 3” value (C57BL/KsBom-db/db mice [1]; day 3, vs sham) was −3.28%, the “Blood glucose, day 4 post treatment” value (C57BL/KsBom-db/db mice [1]; day 4) was 11.5 ± 1.86 mM and the “Blood glucose % change compared to control, day 4” value (C57BL/KsBom-db/db mice [1]; day 4, vs sham) was −11.5%. The “Blood glucose, day 5 post treatment” value (C57BL/KsBom-db/db mice [1]; day 5) was 11.9 ± 2.74 mM, the “Blood glucose % change compared to control, day 5” value (C57BL/KsBom-db/db mice [1]; day 5, vs sham) was −13.1% and the “Blood glucose, day 6 post treatment” value (C57BL/KsBom-db/db mice [1]; day 6) was 11.6 ± 2.73 mM. The “Blood glucose % change compared to control, day 6” value (C57BL/KsBom-db/db mice [1]; day 6, vs sham) was −10.7%, the “Blood glucose, day 7 post treatment” value (C57BL/KsBom-db/db mice [1]; day 7) was 11.7 ± 1.78 mM and the “Blood glucose % change compared to control, day 7” value (C57BL/KsBom-db/db mice [1]; day 7, vs sham) was −22.0%. For the same molecule, the “Blood glucose, day 8 post treatment” value (C57BL/KsBom-db/db mice [1]; day 8) was 11.0 ± 0.35 mM, the “Blood glucose % change compared to control, day 8” value (C57BL/KsBom-db/db mice [1]; day 8, vs sham) was −13.4% and the “Blood glucose, day 9 post treatment” value (C57BL/KsBom-db/db mice [1]; day 9) was 11.5 ± 1.00 mM. The “Blood glucose % change compared to control, day 9” value (C57BL/KsBom-db/db mice [1]; day 9, vs sham) was −14.0%, the “Blood glucose, day 10 post treatment” value (C57BL/KsBom-db/db mice [1]; day 10) was 11.9 ± 5.21 mM and the “Blood glucose % change compared to control, day 10” value (C57BL/KsBom-db/db mice [1]; day 10, vs sham) was −8.30%. The “oral glucose tolerance compared to sham treated (in words)” value (C57BL/KsBom-db/db mice [2]) was “slight improvement in glucose tolerance”, the “Blood glucose profile, 0 min post glucose load” value (C57BL/KsBom-db/db mice [2]; OGTT day 10, 0 min) was 16.3 ± 3.91 mM and the “Blood glucose % change compared to control, 0 min post glucose load” value (C57BL/KsBom-db/db mice [2]; OGTT day 10, 0 min, vs sham) was −7.05%. For the same molecule, the “Blood glucose profile, 30 min post glucose load” value (C57BL/KsBom-db/db mice [2]; OGTT day 10, 30 min) was 27.6 ± 1.53 mM, the “Blood glucose % change compared to control, 30 min post glucose load” value (C57BL/KsBom-db/db mice [2]; OGTT day 10, 30 min, vs sham) was −16.7% and the “Blood glucose profile, 60 min post glucose load” value (C57BL/KsBom-db/db mice [2]; OGTT day 10, 60 min) was 24.4 ± 2.99 mM. The “Blood glucose % change compared to control, 60 min post glucose load” value (C57BL/KsBom-db/db mice [2]; OGTT day 10, 60 min, vs sham) was −10.0%, the “Blood glucose profile, 90 min post glucose load” value (C57BL/KsBom-db/db mice [2]; OGTT day 10, 90 min) was 20.6 ± 2.08 mM and the “Blood glucose % change compared to control, 90 min post glucose load” value (C57BL/KsBom-db/db mice [2]; OGTT day 10, 90 min, vs sham) was −7.39%. For the same molecule, the “Blood glucose profile, 120 min post glucose load” value (C57BL/KsBom-db/db mice [2]; OGTT day 10, 120 min) was 16.0 ± 1.73 mM, the “Blood glucose % change compared to control, 120 min post glucose load” value (C57BL/KsBom-db/db mice [2]; OGTT day 10, 120 min, vs sham) was −14.3% and the “Blood glucose profile, −30 min post glucose load” value (C57BL/KsBom-db/db mice [2]; OGTT day 10, −30 min) was 11.8 ± 5.21 mM. For the same molecule, the “Blood glucose % change compared to control, −30 min post glucose load” value (C57BL/KsBom-db/db mice [2]; OGTT day 10, −30 min, vs sham) was −8.31%, the “Serum lipid profile: Cholesterol” value (C57BL/KsBom-db/db mice [3]) was 160 ± 6.66 mg/dL and the “Serum lipid profile: HDL-Chol” value (C57BL/KsBom-db/db mice [3]) was 59.0 ± 2.65 mg/dL. The “Serum lipid profile: Triglycerides” value (C57BL/KsBom-db/db mice [3]) was 130 ± 3.06 mg/dL, the “serum cholesterol, triglycerides (lipid profile) compared to sham treated (in words)” value (C57BL/KsBom-db/db mice [3]) was “no statistically significant difference” and the “Cholesterol % change compared to control” value (C57BL/KsBom-db/db mice [3]; vs sham) was −6.18%. For the same molecule, the “HDL-Chol % change compared to control” value (C57BL/KsBom-db/db mice [3]; vs sham) was “+5.35%” and the “Triglycerides % change compared to control” value (C57BL/KsBom-db/db mice [3]; vs sham) was −1.72%.
